Measured values as given in US20220087983A1, “ACTIVATING PYRUVATE KINASE R” (FORMA Therapeutics, Inc., priority 2020, published 2022).
Several values for one entry are separate records, joined by “and”; a condition that tells them apart may be missing. Equal entries are not always repeated.

Assays:
[1] = cited from earlier work
[2] = Phase 1: hematologic and hemolytic parameters in SCD patients; format: in vivo, human; settings: blinded 300 mg Compound 1/placebo QD, individual patients Pt 1-3
Source text: Laboratory changes relative to pretreatment for each pt in the MD cohort as of Jul. In 2 of 3 SCD MD-1 pts treated with Compound 1/placebo (currently blinded), Hb increased by >1 g/dL, % reticulocytes decreased, and markers of hemolysis were improved after 14 days of treatment (compared to pre-treatment levels). Hematologic parameters returned to pre-treatment levels 4 to 7 days post-treatment (data not shown) without clinical AEs. […]

Row | Structure (SMILES) | steady state whole blood AUC higher in HbSC than HbSS genotype patients ([1]; HbSC n=11, HbSS n=220) | steady state whole blood Cmax higher in HbSC than HbSS genotype patients ([1]; HbSC n=11, HbSS n=220) | steady state plasma AUC higher in HbSC than HbSS genotype patients ([1]; human, in vivo) | steady state plasma Cmax higher in HbSC than HbSS genotype patients ([1]; human, in vivo) | increase of AUC in plasma with a high-fat, high-calorie meal ([1]; relative to fasted state) | increase of AUC in whole blood with a high-fat, high-calorie meal ([1]; relative to fasted state) | increase of Cmax in plasma with a high-fat, high-calorie meal ([1]; relative to fasted state) | increase of Cmax in whole blood with a high-fat, high-calorie meal ([1]; relative to fasted state) | Hemoglobin ([2]; Day 7 (on Tx)) | Indirect Bilirubin ([2]; Day 7 (on Tx)) | Reticulocytes, % ([2]; Day 7 (on Tx)) | Hemoglobin ([2]; Day 14/15 (EOT)) | Indirect Bilirubin ([2]; Day 14/15 (EOT)) | Reticulocytes, % ([2]; Day 14/15 (EOT))
1 | CC(C)n1nccc1-c1ncccc1COc1cccc(O)c1C=O [voxelotor, 2-hydroxy-6-((2-(1-isopropyl-1H-pyrazol-5-yl)pyridin-3-yl)methoxy)benzaldehyde] | 50% | 45% | 23% | 15% | 42% | 42% | 95% | 45% | – | – | – | – | – | –
2 | O=C([C@H](CO)c1ccccc1)N1CC2=C(C1)CN(S(=O)(=O)c1cnc3c(c1)OCCO3)C2 [Compound 1/Placebo] | – | – | – | – | – | – | – | – | 7.9 g/dL and 8.8 g/dL | 2.5 mg/dL and 0.9 mg/dL and 0.8 mg/dL | 6.8% and 5.8% | 7.5 g/dL and 9.2 g/dL | 3.0 mg/dL and 0.8 mg/dL and 1.0 mg/dL | 0.8% and 4.2%
